According to patent US4657931A, “N-(acyldipeptidyl)-aminoglycols” (G. D. Searle & Co., priority 1985, dated 1987):
Residue numbers refer to the chain shown, from its start. Square brackets hold non-standard residues; d marks the D form. Peptide text beside a SMILES is read from it. * marks the point of attachment. Sta = CC(C)C[C@H](N)[C@@H](O)CC(=O)O; Isovaleryl = CC(C)CC(=O)*

How the values were obtained:
human renin = target: T1, human renin (Homo sapiens, UniProt P00797); test: Human Renin Test (angiotensin I by radioimmunoassay); format: biochemical
T1 sequence (P00797 67-406): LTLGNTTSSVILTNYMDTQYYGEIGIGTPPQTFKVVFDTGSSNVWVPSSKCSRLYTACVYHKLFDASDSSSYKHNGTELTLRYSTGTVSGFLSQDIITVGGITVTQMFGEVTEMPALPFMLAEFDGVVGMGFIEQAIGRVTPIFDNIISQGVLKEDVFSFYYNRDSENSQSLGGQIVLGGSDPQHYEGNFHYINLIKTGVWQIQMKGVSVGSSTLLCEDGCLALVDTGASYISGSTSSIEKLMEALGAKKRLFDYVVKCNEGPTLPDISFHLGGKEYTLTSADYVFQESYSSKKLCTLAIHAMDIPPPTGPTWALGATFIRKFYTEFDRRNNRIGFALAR
Method: The enzyme preparation was the international reference standard for human renin while human blood plasma was the angiotensinogen substrate source. The enzyme inhibition assay involved a two-hour incurbation at 37° C. of the following final concentrations of reagents (total volume of 0.25 ml): 0.1 mG units/ml human renin, 0.05 ml human plasma, 6 mM Na2 EDTA, 2.4 mM PMSF, 1.5 mM 8-hydroxyquinoline, 0.4 mg/ml BSA, 0.024 mg/ml neomycin sulfate in a 100 mM Tris Acetate buffer, pH 7.5. The reaction was terminated by boiling for 10 min and the angiotensin I produced was determined by radioimmunoassay.
This assay is a modification of the one by Burton et al. (Biochemistry 14, 3892, 1975).

monkey renin = target: T2, monkey renin (Macaca mulatta, UniProt Q6DLW5); test: Monkey Renin Test: plasma renin activity of Lasix treated Rhesus monkeys; format: in vivo; parameters: Plasma renin activity (PRA), Pre-Lasix -24 hr / Plasma renin activity (PRA), Post-Lasix 0 hr / Plasma renin activity (PRA), Post-Lasix 2 min / Plasma renin activity (PRA), Post-Lasix 5 min / Plasma renin activity (PRA), Post-Lasix 15 min: unit not given here; settings: for PRA after 15 min, in words / PRA at 2 min after treatment, in words: 10 mg/kg iv, lasix treated Rhesus monkeys; for Plasma renin activity (PRA), Post-Lasix 2 min: 2 min after 10 mg/kg iv; for Plasma renin activity (PRA), Post-Lasix 2 min / Plasma renin activity (PRA), Post-Lasix 5 min / Plasma renin activity (PRA), Post-Lasix 15 min / Plasma renin activity (PRA), Pre-Lasix -24 hr / Plasma renin activity (PRA), Post-Lasix 0 hr: mean ± S.E., n = 6; for Plasma renin activity (PRA), Post-Lasix 5 min: 5 min after 10 mg/kg iv; for Plasma renin activity (PRA), Post-Lasix 15 min: 15 min after 10 mg/kg iv; for Plasma renin activity (PRA), Pre-Lasix -24 hr: baseline before lasix and before drug, group later given 10 mg/kg iv; for Plasma renin activity (PRA), Post-Lasix 0 hr: immediately before drug treatment (10 mg/kg iv)
T2 construct: from tissue; host or cells: plasma of furosemide-treated Rhesus monkeys
T2 sequence (Q6DLW5 67-406): T1 sequence (P00797 67-406) with T2A, I148L, S169A, Q204P, R340H
Method: Rhesus monkeys (6/group) weighing (6.3-9.9 kg) were treated with lasix (furosemide) at 2 mg/kg, both in the A.M. and P.M. on day 1. […] Plasma samples (K-EDTA) were taken before the initial lasix, immediately before the drug treatment and at 2, 5, 15 min after the treatment. Plasma renin activity (PRA) was determined by the method of Burton et al., Biochemistry 14, 3892, 1975.

hog renin = settings: after the injection of hog renin into nephrectomized rats; cited from earlier work

Row | SMILES | PRA after 15 min, in words (monkey renin) | PRA at 2 min after treatment, in words (monkey renin) | Plasma renin activity (PRA), Post-Lasix 2 min (monkey renin) | Plasma renin activity (PRA), Post-Lasix 5 min (monkey renin) | Plasma renin activity (PRA), Post-Lasix 15 min (monkey renin) | Plasma renin activity (PRA), Pre-Lasix -24 hr (monkey renin) | Plasma renin activity (PRA), Post-Lasix 0 hr (monkey renin) | also measured
1 | CC(C)C[C@H](NC(=O)[C@H](Cc1ccccc1)NC(=O)OC(C)(C)C)C(=O)N[C@@H](Cc1ccccc1)[C@@H](O)CO [Compound 4, N-[(1,1-dimethylethoxy)carbonyl]-L-phenylalanyl-N-[2R, 3-dihydroxy-1S-(phenylmethyl)propyl]-L-leucinamide] | still lowered | returned to pre-lasix values | 8.4 ± 2.6 | 15.1 ± 3.5 | 23.5 ± 4.6 | 12.2 ± 2.9 | 47.2 ± 7.9 | Activity, effect on human renin activity (human renin; Dose 8.4 × 10^-6 (unit not given)): Active
2 | CC(C)(C)OC(=O)N[C@@H](Cc1ccccc1)C(=O)N[C@@H](Cc1c[nH]cn1)C(=O)N[C@@H](Cc1ccccc1)[C@@H](O)CO [Compound 7, N-[(1,1-dimethylethoxy)carbonyl]-L-phenylalanyl-N-[2R,3-dihydroxy-1S-(phenylmethyl)propyl]-L-histidinamide] | – | – | – | – | – | – | – | Activity, effect on human renin activity (human renin; Dose 2.6 × 10^-6 (unit not given)): Active
3 | CC(C)C[C@H](NC(=O)[C@H](Cc1cccc2ccccc12)NC(=O)OC(C)(C)C)C(=O)N[C@@H](Cc1ccccc1)[C@@H](O)CO [Compound 8, N-[(1,1-dimethylethoxy)carbonyl]-3-(1-naphthalenyl)-L-alanyl-N-[2R,3-dihydroxy-1S-(phenylmethyl)propyl]-L-leucinamide] | – | – | – | – | – | – | – | Activity, effect on human renin activity (human renin; Dose 1.5 × 10^-5 (unit not given)): Active
4 | CC(C)C[C@H](NC(=O)[C@H](Cc1ccccc1)NC(=O)CC(C)(C)C)C(=O)N[C@@H](Cc1ccccc1)[C@@H](O)CO [Compound 11, N-(3,3-dimethyl-1-oxobutyl)-L-phenylalanyl-N-[2R,3-dihydroxy-1S-(phenylmethyl)propyl]-L-leucinamide] | – | – | – | – | – | – | – | Activity, effect on human renin activity (human renin; Dose 4 × 10^-6 (unit not given)): Active
5 | CC(C)CC(=O)N[C@H](C(=O)N[C@H](C(=O)N[C@@H](CC(C)C)[C@@H](O)CC(=O)N[C@@H](C)C(=O)N[C@@H](CC(C)C)[C@@H](O)CC(=O)O)C(C)C)C(C)C [Pepstatin, pepstatin, reference compound] (Isovaleryl-VV[Sta]A[Sta]-OH) | returned to post-lasix levels | returned to pre-lasix values | 13.0 ± 0.2 | 22.7 ± 9.2 | 44.7 ± 5.4 | 13.9 ± 2.5 | 53.1 ± 6.1 | Blood pressure in vivo (hog renin): reduce blood pressure
